Reference: patent publication US20240287082A1, “NEW BENZODIAZEPINE DERIVATIVES AS GABA A GAMMA1 PAM” (Hoffmann-La Roche Inc., priority 2021, published 2024)
Like-named read-outs stand apart in the source and are kept apart here.

How the values were obtained:
[1] = target: human GABAA α2β2γ1 receptor (Homo sapiens (Human), UniProt P47869+Q8N1C3); experiment: Radioligand binding assay, competition for [3H]RO7239181, γ1-containing GABAA subtype α2β2γ1; conditions: for γ2/γ1 Selectivity Ratio: Ki α1β3γ2 (nM)/Ki α2β2γ1 (nM); for LogSel: Log[Ki α1β3γ2 (nM)/Ki α2β2γ1 (nM)]
Description: (§1) The affinity of compounds at GABAA γ1 subunit-containing receptors was measured by competition for [^3H]RO7239181 (67.3 Ci/mmol; Roche) binding to membranes from HEK293F cells (ThermoFisher R^79007) expressing human (transiently transfected) receptors of composition α5β2γ1, α2β2γ1, α1β2γ1.
(§2) Harvested pellets from HEK293F cells expressing the different GABAA receptor subtypes were resuspended in Mannitol Buffer pH 7.2-7.4 (Mannitol 0.29M, Triethylamine 10 mM, Acetic acid 10 mM, EDTA 1 mM plus protease inhibitors (20 tablets Complete, Roche Diagnostics Cat. No. 05 056 489 001 per liter)), washed two times and then resuspended at 1:10 to 1:15 dilution in the same buffer. Cell disruption was performed by stirring the suspension in a Parr vessel #4637 at 435 psi for 15 minutes, and then the suspensions were centrifuged at 1000×g for 15 minutes at 4° C. (Beckman Avanti J-HC: rotor JS-4.2). The supernatant (S1) was transferred in a 21 Schott flask and the pellet (P1) was resuspended with Mannitol Buffer up to 175 ml. The resuspended pellet was transferred into a 250 ml Corning centrifugal beaker and centrifuged at 1500×g for 10 minutes at 4° C. (Beckman Avanti J-HC: rotor JS-4.2). The supernatant (S1) was then transferred in the 21 Schott flask and the pellet was discarded. The supernatants (S1) were centrifuged in 500 ml Beckman polypropylene centrifugal beaker at 15 000×g for 30 minutes at 4° C. (Beckman Avanti J-20 XP: rotor JLA-10.500). The pellet (P2) was resuspended with Mannitol Buffer 1:1 and frozen at −80° C. The supernatant (S2) was centrifuged in 100 ml Beckman polypropylene centrifugal tubes at 48000×g for 50 minutes at 4° C. (Beckman Avanti J-20 XP: rotor JA-18). The supernatant (S3) was discarded and the pellet (P3) was resuspended with 1:1 Mannitol Buffer. The P2 and P3 protein concentration was determined with the BIORAD Standard assay method with bovine serum albumin as standard and measured on the NANO-Drop 1000. The membrane suspension was aliquots (500 μl per tube) and stored at −80° C. until required.
(§3) Membrane homogenates were resuspended and polytronised (Polytron PT1200E Kinematica AG) in Potassium Phosphate 10 mM, KCl 100 mM binding buffer at pH 7.4 to a final assay concentration determined with a previous experiment.
(§4) Assays were incubated to equilibrium for 1 hour at 4° C. and then, membranes were filtered onto unifilter (96-well white microplate with bonded GF/C filters preincubated 20-50 minutes in 0.3% Polyethylenimine) with a Filtermate 196 harvester (Packard BioScience) and washed 4 times with cold Potassium Phosphate 10 mM pH 7.4, KCl 100 mM binding buffer. After anhydrousing, filter-retained radioactivity was detected by liquid scintillation counting. Ki values were calculated using Excel-Fit (Microsoft) and are the means of two determinations.

[2] = target: human GABAA α1β3γ2 receptor (Homo sapiens (Human), UniProt P14867+P18507); experiment: Radioligand binding assay, competition for [3H]Flumazenil, γ2-containing GABAA subtype α1β3γ2
Description: The affinity of compounds at GABAA γ2 subunit-containing receptors was measured by competition for [^3H]Flumazenil (81.1 Ci/mmol; Roche) binding to HEK293F cells expressing human (transiently transfected) receptors of composition α1β3γ2.
Harvested pellets from HEK293F cells expressing the different GABAA γ2 receptor subtypes were resuspended in Mannitol Buffer pH 7.2-7.4 and processed as described above for the cells expressing the GABAA γ1 subunit-containing receptors.
Assays were incubated to equilibrium for 1 hour at 4° C. and harvested onto GF/C uni-filters (Packard) by filtration using a Packard harvester and washing with ice-cold wash buffer (50 mM Tris; pH 7.5). After anhydrousing, filter-retained radioactivity was detected by liquid scintillation counting. Ki values were calculated using Excel-Fit (Microsoft) and are the means of two determinations.

[3] = target: human GABAA α1β2γ1 receptor (Homo sapiens (Human), UniProt P14867+Q8N1C3); experiment: Radioligand binding assay, competition for [3H]RO7239181, γ1-containing GABAA subtype α1β2γ1; conditions: membranes of HEK293F cells, [3H]RO7239181 20-30 nM, mean of two determinations
Description: as §1, §2, §3, §4

[4] = target: human GABAA α5β2γ1 receptor (Homo sapiens (Human), UniProt P31644+Q8N1C3); experiment: Radioligand binding assay, competition for [3H]RO7239181, γ1-containing GABAA subtype α5β2γ1
Description: as §1, with “α1β2γ1. For better protein expression of the α2 subunit-containing receptors, the 28 amino acid long signal peptide (Met1 to Ala28)of the human GABAA α2 subunit was substituted by the 31 amino acid long signal peptide (Met1 to Ser31) of human GABAA α5 subunit.” for “α1β2γ1.”
as §2, §3
as §4, with “Radioligand binding assays were carried out in a volume of 200 μL (96-well plates) which contained 100 μL of cell membranes, [3H]RO7239181 at a concentration of 1.5 nM (α5β2γ1) or 20-30 nM (α1β2γ1, α2β2γ1) and the test compound in the range of [0.3-1000]×10^−9 M. Nonspecific binding was defined by 10×10^−6 (α5β2γ1) and 30×10^−6 M RO7239181 and typically represented less than 5% (α5β2γ1) and less than 20% (α1β2γ1, α2β2γ1) of the total binding. Assays” for “Assays”

h-GABA-A α2β2γ1 = h-GABA-A α2β2γ1 (Homo sapiens (Human), UniProt P47869+Q8N1C3); experiment: Two-electrode voltage clamp electrophysiology in Xenopus oocytes expressing GABAA receptors, modulation of GABA EC20 current; format: cell-based; conditions: for Efficacy (GABA) %: % modulation of GABA EC20 = 100*(Fold increase−1), compound at 30-fold Ki α2β2γ1; for Fold increase h-GABA-A α2β2γ1 oocyte @ 30-fold Ki: Xenopus oocytes, GABA EC20, test compound at approx. 30-fold its Ki α2β2γ1
Description: Xenopus laevis oocytes at maturation stages V-VI were used for the expression of cloned mRNA encoding GABAA receptor subunits. Oocytes ready for RNA micro-injection were bought from Ecocyte, Castrop-Rauxel, Germany and stored in modified Barth's medium (composition in mM: NaCl 88, KCl 1, NaHCO3 2.4, HEPES 10, MgSO4 0.82, CaNO3 0.33, CaCl2 0.33, pH=7.5) at 20° C. until the experiment.
Oocytes were plated in 96-well plates for microinjection using the Roboinject automated instrument (MultiChannelSystems, Reutlingen, Germany). Approximately 50 nL of an aqueous solution containing the RNA transcripts for the subunits of the desired GABAA receptor subtype was injected into each oocyte. […] Oocytes were kept in modified Barth's medium (composition in mM: NaCl 88, KCl 1, NaHCO3 […], HEPES 10, MgSO4 0.82, CaNO3 0.33, CaCl2 0.33, pH=7.5) at 20° C. until the experiment.
Electrophysiological experiments were performed using the Roboocyte instrument (MultiChannelSystems, Reutlingen, Germany) on days 3 to 5 after the micro-injection of mRNA. During the experiment the oocytes were constantly superfused by a solution containing (in mM) NaCl 90, KCl 1, HEPES 5, MgCl2 1, CaCl2 1 (pH 7.4). Oocytes were impaled by two glass microelectrodes (resistance: 0.5-0.8 MΩ) which were filled with a solution containing KCl 1M+K-acetate 1.5 M and voltage-clamped to −80 mV. The recordings were performed at room temperature using the Roboocyte two-electrode voltage clamp system (Multichannelsystem). After an initial equilibration period of 1.5 min GABA was added for 1.5 min at a concentration evoking approximately 20% of a maximal current response (EC20). After another rest interval of 2.5 min GABA was again added evoking a response of similar amplitude and shape. […] Current traces were recorded at a digitization rate of 10 Hz during and shortly before and after the GABA application.
Each compound and concentration was tested on at least 3 oocytes. Different oocytes were used for different compound concentrations.
For the analysis, the digitized current traces of the first and second GABA response were superimposed and, if necessary, rescaled to equal maximal amplitudes. The ratio between the two responses during the time interval of test compound application was calculated point by point. The extremum of the resulting “ratio trace” was taken as the efficacy (“Fold increase”) of the compound expressed as “% modulation of GABA EC20” (100*(Fold increase−1)).

[5] = read-out: Ki h-GABAA α2β2γ1, Table 2, membranes of HEK293F cells, [3H]RO7239181

Row | SMILES | γ2/γ1 Selectivity Ratio [1] | LogSel [1] | Ki ([1]; Table 2, membranes of HEK293F cells, [3H]RO7239181, read-out: Ki h-GABAA α2β2γ1) [nM] | Ki ([1]; membranes of HEK293F cells, [3H]RO7239181 20-30 nM, mean of two determinations, read-out: Ki h-GABAA α2β2γ1) [nM] | Ki ([2]; HEK293F cell membranes, [3H]Flumazenil 1 nM, mean of two determinations, read-out: Ki h-GABAA α1β3γ2) [nM] | Ki [3] [nM] | Ki ([4]; membranes of HEK293F cells, [3H]RO7239181 1.5 nM, mean of two determinations, read-out: Ki h-GABAA α5β2γ1) [nM] | Ki [1] [nM] | Ki [1, 5] [nM] | Efficacy (GABA) % (h-GABA-A α2β2γ1) [%] | Fold increase h-GABA-A α2β2γ1 oocyte @ 30-fold Ki (h-GABA-A α2β2γ1) | Ki [2] [nM] | Ki [4] [nM]
1 | C[C@@H]1N=C(c2c(F)cccc2F)c2c(ccc(C(F)(F)F)c2Cl)-n2cc(CO)c(=O)nc21 [Example 29, (5S)-8-chloro-7-(2,6-difluorophenyl)-2-(hydroxymethyl)-5-methyl-9-(trifluoromethyl)-5H-pyrimido[1,2-a][1,4]benzodiazepin-3-one] | 292.6 | 2.47 | 44.6 | 44.6 | 13100 | 113 | 11.2 | – | – | – | – | – | –
2 | O=c1nc2n(cc1Br)-c1ccc(Cl)c(Cl)c1C(c1c(F)cccc1F)=NC2 [Example 5, 2-bromo-8,9-dichloro-7-(2,6-difluorophenyl)-5H-pyrimido[1,2-a][1,4]benzodiazepin-3-one] | 190.6 | 2.28 | – | – | – | – | – | 10.6 | 10.6 | 78 | 1.78 | 2020 | 1.4
3 | C[C@@H]1N=C(c2c(F)cccc2F)c2c(ccc(Cl)c2Br)-n2cc(Br)c(=O)nc21 [Example 23, (5S)-2,8-dibromo-9-chloro-7-(2,6-difluorophenyl)-5-methyl-5H-pyrimido[1,2-a][1,4]benzodiazepin-3-one] | 40.5 | 1.61 | – | – | – | – | – | 74.1 | 74.1 | 107 | 2.07 | 3000 | 6.8
4 | C[C@@H]1N=C(c2c(F)cccc2F)c2c(ccc(Br)c2Cl)-n2cc(Br)c(=O)nc21 [Example 16, (5S)-2,9-dibromo-8-chloro-7-(2,6-difluorophenyl)-5-methyl-5H-pyrimido[1,2-a][1,4]benzodiazepin-3-one] | 188.0 | 2.27 | – | – | – | – | – | 8.3 | – | 71 | 1.71 | 1570 | 1.6
5 | O=c1ccn2c(n1)CN=C(c1c(F)cccc1F)c1c-2ccc(Br)c1Cl [Example 12, 9-bromo-8-chloro-7-(2,6-difluorophenyl)-5H-pyrimido[1,2-a][1,4]benzodiazepin-3-one] | 70.5 | 1.85 | – | – | – | – | – | 4.6 | 4.6 | 65 | 1.65 | 322 | 0.7
